Experimental data published in patent publication US7622469B2, “2,4-diamino-1,3,5-triazine derivatives” (Hamari Chemicals, Ltd., priority 2002, dated 2009).
Values after ≈ are worked out from the molar mass of the structure shown.

How the values were obtained:
Experiment in all cases: Antibacterial activity test (MIC)
Conditions in all cases: Mueller-Hinton Broth, 37° C., 20 to 24 hours
MRSA 97-115 = type: cell-based, methicillin-resistant Staphylococcus aureus
Description: (§1) Regarding compounds obtained in respective Working Examples, in order to investigate antibacterial activity, minimal inhibitory concentration (MIC) was determined according to a standard method of Japanese Society of Chemotherapy.
(§2) As a test bacterium, nine kinds of S. aureus 209PJC, MRSA 97-115, MRSA KM 97-53, MRSA KM97-108, VRE 49, E. coli NIHJ JC-2, P. aeruginosa PAO-1, P. aeruginosa No. 12, P. aeruginosa KM97-5 were used and, as a medium, Mueller-Hinton Broth (DIFCO) was used. One platinum loop of a test bacterium was inoculated into 20 ml of a medium, and static culture was carried out at 37° C. for 16 to 20 hours, and then each bacterium species was diluted with a sterilized physiological saline to 10^5/ml, which was used as a test bacterium solution.
(§3) Then, each compound was dissolved in methanol, subjected to ½ stepwise dilution with a medium to prepare a medium for measuring sensitivity, and each 2 ml was dispensed into a test tube. A compound concentration in a medium was adjusted to 100 μg/ml and its 2^n-fold (n=−10 to 1).
(§4) Numerical values in Tables represent MIC expressed in μg/ml unit.

E. coli NIHJ JC-2 = type: cell-based
Description: as §1, §2, §3, §4

P. aeruginosa PAO-1 = type: cell-based
Description: as §1, §2, §3, §4

S. aureus 209PJC = type: cell-based
Description: as §1, §2, §3, §4

Compound | minimal inhibitory concentration (MIC) (MRSA 97-115) | minimal inhibitory concentration (MIC) (E. coli NIHJ JC-2) | minimal inhibitory concentration (MIC) (P. aeruginosa PAO-1) | minimal inhibitory concentration (MIC) (S. aureus 209PJC)
CCCCCCCCCCNC1=NC(C)(C)N=C(NCc2ccc(O)cc2)N1.Cl [compound 7] | 0.8 µg/mL | 12.5 µg/mL | 50 µg/mL | 0.2 µg/mL
CCCCCCCCNC1=NC(C)(C)N=C(NCc2ccc(O)cc2)N1.Cl [compound 8] | 3.1 µg/mL | 25 µg/mL | >100 µg/mL | 0.4 µg/mL
CCCCCCCCCCCNC1=NC(C)(C)N=C(NCc2ccc(O)cc2)N1.Cl [compound 9] | 1.6 µg/mL | 100 µg/mL | >100 µg/mL | 0.4 µg/mL
CCCCCCCCCCNC1=NCN=C(NCCc2ccc(OC)cc2)N1.Cl [compound 10] | 6.4 µg/mL | – | 26 µg/mL | 0.4 µg/mL
CCCCCCCCCCNC1=NC(C)(C)N(c2ccc(OC)cc2)C(N)=N1.Cl [compound 14] | 3.1 µg/mL | 50 µg/mL | 100 µg/mL | 3.1 µg/mL
CCCCCCCCC1N=C(N)NC(NCc2ccc(C(F)(F)F)cc2)=N1.Cl (stereo not shown) [compound 17] | 1.6 µg/mL | 12.5 µg/mL | 25 µg/mL | 0.8 µg/mL
CCCCCCCCCCCC1N=C(N)NC(NCc2ccc(C(F)(F)F)cc2)=N1.Cl (stereo not shown) [compound 19] | 3.1 µg/mL | 50 µg/mL | 100 µg/mL | 0.4 µg/mL
CCCCCCCC1N=C(N)N=C(N)N1c1ccc(C(C)(C)C)cc1.Cl (stereo not shown) [compound 20] | 3.1 µg/mL | 50 µg/mL | 50 µg/mL | 3.1 µg/mL
CCCCCCCCC1N=C(N)N=C(N)N1c1ccc(C(C)(C)C)cc1.Cl (stereo not shown) [compound 21] | 3.1 µg/mL | 25 µg/mL | 50 µg/mL | 1.5 µg/mL
CCCCCCCCCC1N=C(N)NC(Nc2ccc(C(C)(C)C)cc2)=N1.Cl (stereo not shown) [compound 23] | 1.6 µg/mL | >100 µg/mL | >100 µg/mL | 0.8 µg/mL
CCCCCCCCC1N=C(N)N=C(N)N1c1cc(C(C)(C)C)ccc1OC.Cl (stereo not shown) [compound 24] | 1.6 µg/mL | 50 µg/mL | 50 µg/mL | 1.6 µg/mL
CCCCCCCCC1N=C(N)NC(Nc2cc(C(C)(C)C)ccc2OC)=N1 (stereo not shown) [compound 25] | 1.6 µg/mL (≈ 4.13 µM) | – | – | 1.6 µg/mL (≈ 4.13 µM)
CCCCCCCCC1N=C(N)N=C(N)N1c1ccc(OC(F)(F)F)cc1.Cl (stereo not shown) [compound 26] | 6.3 µg/mL | 50 µg/mL | 50 µg/mL | 3.1 µg/mL
CCCCCCCCC1N=C(N)NC(Nc2ccc(OC(F)(F)F)cc2)=N1.Cl (stereo not shown) [compound 27] | 1.6 µg/mL | 25 µg/mL | >100 µg/mL | 1.6 µg/mL
CCCCCCCCCC1N=C(N)N=C(N)N1c1ccc(OC(F)(F)F)cc1.Cl (stereo not shown) [compound 28] | 3.1 µg/mL | 25 µg/mL | 50 µg/mL | 1.6 µg/mL
CCCCCCCCCC1N=C(N)NC(Nc2ccc(OC(F)(F)F)cc2)=N1.Cl (stereo not shown) [compound 29] | 1.6 µg/mL | >100 µg/mL | >100 µg/mL | 0.8 µg/mL
CC(=O)O.CCCCCCCCCCNC1=NC(C)(C)N=C(NCc2ccccc2)N1 [compound 50] | 0.4 µg/mL | – | 25 µg/mL | 0.4 µg/mL
